Test results published in PubChem BioAssay AID1963839 (Molecular Pharmacology Branch, DTP, NCI, 2024).
Values joined by “and” are separate entries in the source; they are usually repeats but may differ in a detail not shown here. Equal values may be shown once.

Test system: 817829-284-R-J1-PDC complex spheroid viability
Test: Anticancer human tumor 817829-284-R-J1-PDC patient-derived colon adenocarcinoma cell line growth inhibition [POLQ]
Conditions: for viability, T/C: stronger effect = lower value; for IC50: curve of compound
Method: Multicellular complex tumor spheroid response to Polymerase (POL) inhibitors (novobiocin, ART-558, RP6685) in combination with a variety of drugs and investigational agents in selected tumor cell lines
The POL inhibitors (novobiocin, ART-558, and RP6685) were evaluated both individually and in combination with standard of care and investigational anticancer small molecules within a complex spheroid model of solid tumors. . Complex spheroids include a stromal component modeled by human endothelial cells (HUVEC) and fibroblasts modeled by human mesenchymal stem cells (MSCs). The concentration ranges selected for each drug and investigational agent were based upon clinically achievable concentrations if the clinical Cmax of the agent was known.
Compounds. The drugs and investigational agents: novobiocin (NSC847541), ART-558 (NSC835418), RP-6685 (NSC848927), peposertib (NSC802822), ceralasertib (NSC780249), elimusertib (NSC800525), camonsertib (NSC841442), AZD-1390 (NSC803789), olaparib (NSC753686), talazoparib (NSC767125), rucaparib (NSC756644), sotorasib (NSC818433), MRTX-1133 (NSC836407), SN-38 (NSC673596), topotecan (NSC609699), epotoside (NSC141540), doxorubicin (NSC123127), gemcitabine (NSC613327), 5-fluorouracil (NSC19893), paclitaxel (NSC125973), vemurafenib (NSC761431), MSA-2 (NSC828583), SN-011 (NSC837082), adavosertib (NSC754352), prexasertib (NSC758257), carboplatin (NSC241240) and oxaliplatin (NSC266046), were obtained from the National Cancer Institute (NCI) Developmental Therapeutics Program Chemical Repository (21). The FDA-approved anticancer drug set is available from the Developmental Therapeutics Program at https://dtp.cancer.gov/organization/dscb/obtaining/. […] The stock solutions were prepared in dimethyl sulfoxide (DMSO, Sigma-Aldrich, St. Louis, MO, cat. D2650), except for the platinum compounds which were prepared in saline (Quality Biological, Gaithersburg, MD, cat. 114-055-101), at 800-fold the tested concentration and stored at -70 degrees C prior to their use. All drugs and investigational agents were tested over a range starting from a high concentration at or near the clinical Cmax and decreasing in half-log increments. If the clinical Cmax for an agent had not been determined, the highest concentration tested was 10 microM, except for SN-38, which was tested at a high concentration of 1 microM.
Cell Culture. All cells were maintained in an incubator at 37 degrees C and 5% CO2 with 95% humidity. The PDC lines were cultured according to standard operating procedures established by the NCI PDMR (https://pdmr.cancer.gov). Table 3 of the manuscript, lists the cell lines along with the number of the three cell types plated to form the mct-spheroids and media for tumor cell growth. After thawing, all PDC lines, except 997537-175-T-J1-PDC and 415267-285-R-J2-PDC, were cultured in Matrigel-coated flasks prepared with a working solution of 1X Ham's F-12 nutrient mix, without supplementation (Thermo Fisher Scientific, cat. 11765054), 100 U/mL penicillin-streptomycin (Thermo Fisher Scientific, cat. 15140122), and 2.5% Matrigel (Corning Inc., Corning, NY, cat. 354248) for the first three passages. The two PDC lines 997537-175-T-J1-PDC and 415267-285-R-J2-PDC were cultured on uncoated flasks. The 857933-349-R-J2-PDC line was cultured in 6C/Colon 1B media containing advanced DMEM/F-12 (Thermo Fisher Scientific, cat. 12634028), 10 mM HEPES (Thermo Fisher Scientific, cat. 15630080), 1X GlutaMAX supplement (Thermo Fisher Scientific, cat. 35050061), 0.1 mg/mL primocin (InvivoGen, San Diego, CA, cat. ant-pm-2), 10% defined fetal bovine serum, heat inactivated (HyClone Laboratories Inc., Logan, UT, cat. SH30070.03HI), 50% L-WRN conditioned media (ATCC, cat. CRL-3276), 1.25 mM N-Acetyl-L-cysteine (Sigma-Aldrich, cat. A9165), 10 mM nicotinamide (Sigma-Aldrich, cat. N0636), 1X B-27 supplement (Thermo Fisher Scientific, cat. 17504044), 1X N-2 supplement (Thermo Fisher Scientific, cat. […]
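Further: spheroids exposed to compounds for 7 days.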
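Wherever viability, T/C is given: 100% = DMSO vehicle-treated spheroids.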

Structure (SMILES): CCc1cc2c(N3CCc4c(cc(Cn5ccnc5)cc4-c4cn(C)nc4C(F)(F)F)C3=O)ccnc2c(OC)n1
- viability, T/C (compound 0.0316 µM): 101% and 91.9% and 80.3%
- viability, T/C (compound 0.1 µM): 81% and 77.6% and 71.7%
- viability, T/C (compound 0.316 µM): 88.4% and 77.1% and 66.4%
- viability, T/C (compound 1 µM): 65.8% and 68.8% and 64.9%
- viability, T/C (compound 3.16 µM): 54.2% and 59.5% and 53.1%
- viability, T/C (compound 10 µM): 34.8% and 38% and 33.4%
- IC50: 3920 nM and 4920 nM and 3550 nM

Structure (SMILES): CNCc1ccc(-c2[nH]c3cc(F)cc4c3c2CCNC4=O)cc1
- viability, T/C (compound 0.0316 µM): 86.8% and 88% and 73.1%
- viability, T/C (compound 0.1 µM): 81.9% and 77.7% and 81.3%
- viability, T/C (compound 0.316 µM): 63.4% and 89.9% and 53.7%
- viability, T/C (compound 1 µM): 68.6% and 81.8% and 58.3%
- viability, T/C (compound 3.16 µM): 51.3% and 64.6% and 58.9%
- viability, T/C (compound 10 µM): 47.6% (2×) and 40.2%
- IC50: 6530 nM and 6300 nM and 9450 nM

Structure (SMILES): COc1cc(C2c3cc4c(cc3C(OC3OC5COC(C)OC5C(O)C3O)C3COC(=O)C23)OCO4)cc(OC)c1O (stereo not drawn)
- viability, T/C (compound 0.0316 µM): 60.4% and 73.7% and 73.4%
- viability, T/C (compound 0.1 µM): 32.3% and 48.6% and 33.4%
- viability, T/C (compound 0.316 µM): 15.3% and 18.4% and 14.9%
- viability, T/C (compound 1 µM): 19.1% and 18.8% and 20.4%
- viability, T/C (compound 3.16 µM): 16.7% and 11.9% and 11.2%
- viability, T/C (compound 10 µM): 6.7% and 6.64% and 6.97%
- IC50: 47.7 nM and 91.2 nM and 61.7 nM

Structure (SMILES): COc1ccc([C@@H](O)c2cc(-c3ncnc4cc(N5CCOCC5)ccc34)c(F)cc2Cl)nn1
- viability, T/C (compound 0.0316 µM): 79.4% and 93.7% and 78.8%
- viability, T/C (compound 0.1 µM): 94.5% and 91% and 91.4%
- viability, T/C (compound 0.316 µM): 65.4% and 72.2% and 74.5%
- viability, T/C (compound 1 µM): 41% and 43.4% and 43.2%
- viability, T/C (compound 3.16 µM): 30.4% and 40.3% and 25.8%
- viability, T/C (compound 10 µM): 19.4% and 22.7% and 12.3%
- IC50: 684 nM and 894 nM and 830 nM

Structure (SMILES): COc1cccc(OCCCN)c1-c1cc(Nc2cnc(C#N)cn2)n[nH]1
- viability, T/C (compound 0.00316 µM): 33.5% and 96.3% and 91.2%
- viability, T/C (compound 0.01 µM): 8.6% and 15.6% and 14.9%
- viability, T/C (compound 0.0316 µM): 6.55% and 5.13% and 5.86%
- viability, T/C (compound 0.1 µM): 4.87% and 4.67% and 4.64%
- viability, T/C (compound 0.316 µM): 4.09% and 5.43% and 4.13%
- viability, T/C (compound 1 µM): 3.68% (2×) and 3.24%
- IC50: < 3.16 nM and 6.13 nM and 5.89 nM

Structure (SMILES): COc1cccc2c1C(=O)c1c(O)c3c(c(O)c1C2=O)CC(O)(C(=O)CO)CC3OC1CC(N)C(O)C(C)O1 (stereo not drawn)
- viability, T/C (compound 0.0316 µM): 16.9% and 19.5% and 19.8%
- viability, T/C (compound 0.1 µM): 16.4% and 18.4% and 91.1%
- viability, T/C (compound 0.316 µM): 5.17% and 6.51% and 6.09%
- viability, T/C (compound 1 µM): 1.01% and 0.37% and 0.7%
- viability, T/C (compound 3.16 µM): 0.33% and 0.32% and 0.25%
- viability, T/C (compound 10 µM): 0.58% and 0.63% and 0.52%
- IC50: < 31.6 nM and 114 nM

Structure (SMILES): Cn1ncnc1[C@H]1c2n[nH]c(=O)c3cc(F)cc(c23)N[C@@H]1c1ccc(F)cc1
- viability, T/C (compound 0.000316 µM): 80.8% and 91.3% and 74.5%
- viability, T/C (compound 0.001 µM): 64% and 85.5% and 71.1%
- viability, T/C (compound 0.00316 µM): 54.7% and 74.7% and 71.7%
- viability, T/C (compound 0.01 µM): 62.7% and 56.4% and 57.5%
- viability, T/C (compound 0.0316 µM): 38.1% and 61.4% and 34%
- viability, T/C (compound 0.1 µM): 29.1% and 35.4% and 36.5%
- IC50: 11.8 nM and 37.5 nM and 14.7 nM

Structure (SMILES): Nc1ccn(C2OC(CO)C(O)C2(F)F)c(=O)n1 (stereo not drawn)
- viability, T/C (compound 0.0316 µM): 5.66% and 4.03% and 5.85%
- viability, T/C (compound 0.1 µM): 5.98% and 3.62% and 5.26%
- viability, T/C (compound 0.316 µM): 6.49% and 4.28% and 5.54%
- viability, T/C (compound 1 µM): 5.15% and 3.77% and 4.65%
- viability, T/C (compound 3.16 µM): 4.26% and 2.95% and 4.25%
- viability, T/C (compound 10 µM): 3.15% and 2.31% and 3.29%
- IC50: < 31.6 nM

Structure (SMILES): O=c1[nH]cc(F)c(=O)[nH]1
- viability, T/C (compound 0.0316 µM): 104% and 91.8% and 101%
- viability, T/C (compound 0.1 µM): 104% and 98.7% and 75.8%
- viability, T/C (compound 0.316 µM): 93% and 94.3% and 74.7%
- viability, T/C (compound 1 µM): 69.7% and 67.1% and 72.8%
- viability, T/C (compound 3.16 µM): 50.6% and 38.9% and 57.3%
- viability, T/C (compound 10 µM): 44.5% and 29.5% and 45.3%
- IC50: 3450 nM and 1970 nM and 7540 nM
